Consider 28 compounds from patent US20090069565A1, “NEW INDOLE DERIVATIVES AS FACTOR XA INHIBITORS” (priority 2001, published 2009).

Structures are written as SMILES. pKi: −log10 of the molar value.

Sequence of human factor Xa (P00742 235-488 limits assumed): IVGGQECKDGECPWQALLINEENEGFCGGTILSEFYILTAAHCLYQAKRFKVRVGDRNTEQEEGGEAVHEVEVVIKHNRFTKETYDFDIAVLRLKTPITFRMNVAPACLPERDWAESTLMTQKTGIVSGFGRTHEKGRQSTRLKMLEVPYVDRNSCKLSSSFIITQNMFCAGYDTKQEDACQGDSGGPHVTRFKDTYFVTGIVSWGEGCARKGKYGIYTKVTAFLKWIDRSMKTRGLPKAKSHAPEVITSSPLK
Sequence of human factor Xa (P00742 41-179 partner limits assumed): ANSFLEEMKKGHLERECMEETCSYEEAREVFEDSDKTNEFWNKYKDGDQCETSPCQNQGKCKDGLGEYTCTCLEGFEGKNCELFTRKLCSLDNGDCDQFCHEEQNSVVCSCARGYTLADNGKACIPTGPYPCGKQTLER

One assay addresses human factor Xa (Homo sapiens, UniProt P00742). The assay can be described thus: Factor Xa assay (chromogenic, substrate S-2765).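 Note: purified enzyme preincubated with inhibitor for 10 min before substrate addition, final reaction volume 100 µl.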 The format is biochemical. The note with it: inhibition constant for factor Xa; purified enzyme 0.5 nM, substrate S-2765 140 μM, 25° C., pH 7.8; Ki=IC50/{1+(substrate concentration/Km)}; read-out: Ki(FXa).
As to `CC(C)N1CC[C@@H](NC(=O)c2cc3ccccc3n2Cc2cc(-c3ccc(Cl)s3)on2)C1` [Example 221, R-1-[5-(5-Chloro-thiophen-2-yl)-isoxazol-3-ylmethyl]-1H-indole-2-carboxylic acid (1-isopropyl-pyrrolidin-3-yl)-amide], the pKi was 7.32. Turning to `CC(C)N1CC[C@H](NC(=O)c2cc3ccccc3n2Cc2cc(-c3ccc(Cl)s3)on2)C1` [Example 222, S-1-[5-(5-Chloro-thiophen-2-yl)-isoxazol-3-ylmethyl]-1H-indole-2-carboxylic (1-isopropyl-pyrrolidin-3-yl)-amide], the pKi was 6.99.

Still in this assay, the particulars now being: read-out: Ki(FXa).
With `CC(C)N1CCC(NC(=O)c2cc3cc(S(C)(=O)=O)ccc3n2CC(=O)Nc2ccc(Cl)cc2)CC1` [Example 215, 1-[(4-Chloro-phenylcarbamoyl)-methyl]-5-methanesulfonyl-1H-indole-2-carboxylic acid (1-isopropyl-piperidin-4-yl)-amide], the pKi is 7.64. Same read-out and setting: the result for `CC(C)N1CCC(NC(=O)c2cc3cc(Cl)ccc3n2CC(=O)Nc2ccc(Cl)cn2)CC1` [Example 216, 5-Chloro-1-[(5-chloro-pyridin-2-ylcarbamoyl)-methyl]-1H-indole-2-carboxylic acid (1-isopropyl-piperidin-4-yl)-amide] reads 8.05. `CC(C)N1CCC(NC(=O)c2cc3cc(F)ccc3n2CC(=O)Nc2ccc(Cl)cn2)CC1` [Example 217, 1-[(5-Chloro-pyridin-2-ylcarbamoyl)-methyl]-5-fluoro-1H-indole-2-carboxylic acid (1-isopropyl-piperidin-4-yl)-amide]: the pKi is 6.15. `CC(C)N1CCC(NC(=O)c2cc3cc(F)cc(F)c3n2CC(=O)Nc2ccc(Cl)cn2)CC1` [Example 218, 1-[(5-Chloro-pyridin-2-ylcarbamoyl)-methyl]-5,7-difluoro-1H-indole-2-carboxylic acid (1-isopropyl-piperidin-4-yl)-amide]: the pKi was 9.00. The same measure, in the same setting: the result for `CCN1CC[C@H](NC(=O)c2cc3ccccc3n2Cc2cc(-c3ccc(Cl)s3)on2)C1` [Example 219] reads 6.76.

For `CCN1CC[C@@H](NC(=O)c2cc3ccccc3n2Cc2cc(-c3ccc(Cl)s3)on2)C1` [Example 220, R-1-[5-(5-Chloro-thiophen-2-yl)-isoxazol-3-ylmethyl]-1H-indole-2-carboxylic acid (1-ethyl-pyrrolidin-3-yl)-amide], the pKi was 6.99.

Take `CCOC(=O)CN(C(=O)c1cc2c(C(F)(F)F)cccc2n1Cc1cc(-c2ccc(Cl)s2)on1)C1CCN(C(C)C)CC1` [Example 223, [{1-[5-(5-Chloro-thiophen-2-yl)-isoxazol-3-ylmethyl]-4-trifluoromethyl-1H-indole-2-carbonyl}-(1-isopropyl-piperidin-4-yl)-amino]-acetic acid ethyl ester]: the pKi was 6.96. On the same count and under the same terms, with `CCOC(=O)CN(C(=O)c1cc2c(C)ccc(C)c2n1Cc1cc(-c2ccc(Cl)s2)on1)C1CCN(C(C)C)CC1` [Example 224, [{1-[5-(5-Chloro-thiophen-2-yl)-isoxazol-3-ylmethyl]-4,7-dimethyl-1H-indole-2-carbonyl}-(1-isopropyl-piperidin-4-yl)-amino]-acetic acid ethyl ester] the figure was 7.68. Consider `CCOC(=O)CN(C(=O)c1cc2c(OC)ccc(OC)c2n1Cc1cc(-c2ccc(Cl)s2)on1)C1CCN(C(C)C)CC1` [Example 225, [{1-[5-(5-Chloro-thiophen-2-yl)-isoxazol-3-ylmethyl]-4,7-dimethoxy-1H-indole-2-carbonyl}-(1-isopropyl-piperidin-4-yl)-amino]-acetic acid ethyl ester], for which the pKi was 7.59.

For `CCOC(=O)CN(C(=O)c1cc2c(Cl)ccc(Cl)c2n1Cc1cc(-c2ccc(Cl)s2)on1)C1CCN(C(C)C)CC1` [Example 226, [{4,7-Dichloro-1-[5-(5-chloro-thiophen-2-yl)-isoxazol-3-ylmethyl]-1H-indole-2-carbonyl}-(1-isopropyl-piperidin-4-yl)-amino]-acetic acid ethyl ester], the pKi was 7.08. On to `CCOC(=O)CN(C(=O)c1cc2cc(Cl)cc(Cl)c2n1Cc1cc(-c2ccc(Cl)s2)on1)C1CCN(C(C)C)CC1` [Example 227, [{5,7-Dichloro-1-[5-(5-chloro-thiophen-2-yl)-isoxazol-3-ylmethyl]-1H-indole-2-carbonyl}-(1-isopropyl-piperidin-4-yl)-amino]-acetic acid ethyl ester], for which the pKi was 7.06. For the compound `CCOC(=O)CN(C(=O)c1cc2c(Cl)cccc2n1Cc1cc(-c2ccc(Cl)s2)on1)C1CCN(C(C)C)CC1` [Example 228, [{4-Chloro-1-[5-(5-chloro-thiophen-2-yl)-isoxazol-3-ylmethyl]-1H-indole-2-carbonyl}-(1-isopropyl-piperidin-4-yl)-amino]-acetic acid ethyl ester], the pKi was 7.29. With `CC(C)N1CCC(N(CC(=O)O)C(=O)c2cc3c(C(F)(F)F)cccc3n2Cc2cc(-c3ccc(Cl)s3)on2)CC1` [Example 229, [{1-[5-(5-Chloro-thiophen-2-yl)-isoxazol-3-ylmethyl]-4-trifluoromethyl-1H-indole-2-carbonyl}-(1-isopropyl-piperidin-4-yl)-amino]-acetic acid], the pKi was 6.76. For `Cc1ccc(C)c2c1cc(C(=O)N(CC(=O)O)C1CCN(C(C)C)CC1)n2Cc1cc(-c2ccc(Cl)s2)on1` [Example 230, [{1-[5-(5-Chloro-thiophen-2-yl)-isoxazol-3-ylmethyl]-4,7-dimethyl-1H-indole-2-carbonyl}-(1-isopropyl-piperidin-4-yl)-amino]-acetic acid], the pKi was 7.92.

As for `COc1ccc(OC)c2c1cc(C(=O)N(CC(=O)O)C1CCN(C(C)C)CC1)n2Cc1cc(-c2ccc(Cl)s2)on1` [Example 231, [{1-[5-(5-Chloro-thiophen-2-yl)-isoxazol-3-ylmethyl]-4,7-dimethoxy-1H-indole-2-carbonyl}-(1-isopropyl-piperidin-4-yl)-amino]-acetic acid], the negative-log Ki (pKi) is 7.70. On to `CC(C)N1CCC(N(CC(=O)O)C(=O)c2cc3c(Cl)ccc(Cl)c3n2Cc2cc(-c3ccc(Cl)s3)on2)CC1` [Example 232, [{4,7-Dichloro-1-[5-(5-chloro-thiophen-2-yl)-isoxazol-3-ylmethyl]-1H-indole-2-carbonyl}-(1-isopropyl-piperidin-4-yl)-amino]-acetic acid], for which the pKi is 7.26. Take `CC(C)N1CCC(N(CC(=O)O)C(=O)c2cc3cc(Cl)cc(Cl)c3n2Cc2cc(-c3ccc(Cl)s3)on2)CC1` [Example 233, [{5,7-Dichloro-1-[5-(5-chloro-thiophen-2-yl)-isoxazol-3-ylmethyl]-1H-indole-2-carbonyl}-(1-isopropyl-piperidin-4-yl)-amino]-acetic acid]: the pKi was 7.13. For the compound `CC(C)N1CCC(N(CC(=O)O)C(=O)c2cc3c(Cl)cccc3n2Cc2cc(-c3ccc(Cl)s3)on2)CC1` [Example 234, [{4-Chloro-1-[5-(5-chloro-thiophen-2-yl)-isoxazol-3-ylmethyl]-1H-indole-2-carbonyl}-(1-isopropyl-piperidin-4-yl)-amino]-acetic acid], the pKi is 7.25. Same read-out and setting: the result for `CC(C)OC(=O)c1ccc2c(c1)cc(C(=O)NC1CCN(C(C)C)CC1)n2Cc1cc(-c2ccc(Cl)s2)on1` [Example 235, 1-[5-(5-Chloro-thiophen-2-yl)-isoxazol-3-ylmethyl]-2-(1-isopropyl-piperidin-4-ylcarbamoyl)-1H-indole-5-carboxylic acid isopropyl ester] reads 7.38; that for `CC(C)N1CCC(NC(=O)c2cc3cc(C(=O)O)ccc3n2Cc2cc(-c3ccc(Cl)s3)on2)CC1` [Example 236, 1-[5-(5-Chloro-thiophen-2-yl)-isoxazol-3-ylmethyl]-2-(1-isopropyl-piperidin-4-ylcarbamoyl)-1H-indole-5-carboxylic acid], 8.00; that for `CC(C)N1CCC(NC(=O)c2cc3cc(CO)ccc3n2Cc2cc(-c3ccc(Cl)s3)on2)CC1` [Example 237, 1-[5-(5-Chloro-thiophen-2-yl)-isoxazol-3-ylmethyl]-5-hydroxymethyl-1H-indole-2-carboxylic acid (1-isopropyl-piperidin-4-yl)-amide], 8.52. Same read-out and setting: with `CCOC(=O)c1ccc2c(c1)cc(C(=O)NC1CCN(C(C)C)CC1)n2Cc1cc(-c2ccc(Cl)s2)on1` [Example 238, 1-[5-(5-Chloro-thiophen-2-yl)-isoxazol-3-ylmethyl]-2-(1-isopropyl-piperidin-4-ylcarbamoyl)-1H-indole-5-carboxylic acid ethyl ester] the figure was 7.96; with `COC(=O)c1ccc2c(c1)cc(C(=O)NC1CCN(C(C)C)CC1)n2Cc1cc(-c2ccc(Cl)s2)on1` [Example 239, 1-[5-(5-Chloro-thiophen-2-yl)-isoxazol-3-ylmethyl]-2-(1-isopropyl-piperidin-4-ylcarbamoyl)-1H-indole-5-carboxylic acid methyl ester], 8.30; with `CC(C)N1CCC(NC(=O)c2cc3cc(C(=O)OCOC(=O)C(C)(C)C)ccc3n2Cc2cc(-c3ccc(Cl)s3)on2)CC1` [Example 240, 1-[5-(5-Chloro-thiophen-2-yl)-isoxazol-3-ylmethyl]-2-(1-isopropyl-piperidin-4-ylcarbamoyl)-1H-indole-5-carboxylic acid 2,2-dimethyl-propionyloxymethyl ester], 7.46. Regarding `CC(C)N1CCC(NC(=O)c2cc3cc(C(=O)O)ccc3n2Cc2nnc(-c3ccc(Cl)s3)s2)CC1` [Example 242, 1-[5-(5-Chloro-thiophen-2-yl)-[1,3,4]thiadiazol-2-ylmethyl]-2-(1-isopropyl-piperidin-4-ylcarbamoyl)-1H-indole-5-carboxylic acid], the pKi is 8.40.

For `CC(C)OC(=O)c1ccc2c(c1)cc(C(=O)NC1CCN(C(C)C)CC1)n2CC(=O)Nc1ccc(Cl)cc1` [Example 243, 1-[(4-Chloro-phenylcarbamoyl)-methyl]-2-(1-isopropyl-piperidin-4-ylcarbamoyl)-1H-indole-5-carboxylic acid isopropyl ester], the pKi is 8.00.
